Test results as given in PubChem BioAssay AID256 (DTP/NCI, 2004).
“And” between values parts separate entries of the source, which are not always exact repeats. Identical values can stand only once. Toxic doses and inconclusive results are not listed. How the source made its calls: active means survival T/C of 150% or more; inactive means T/C below 125% in these data.

Tested on: CD2F1 mice, L1210 leukemia ip, survival T/C
Test: NCI In Vivo Anticancer Drug Screen. Data for tumor model L1210 Leukemia (intraperitoneal) in CD2F1 (CDF1) mice
Conditions: higher = longer survival
Summary of the method: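 Vehicle-treated tumor-bearing mice served as controls (C) for compound-treated mice (T). Reported figure is T divided by C.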

[1] = endpoint: mean survival time, dose: 100.0 mg/kg/injection, schedule: Q04DX002 (ip), vehicle: saline with Tween-80
[2] = endpoint: mean survival time, dose: 200.0 mg/kg/injection, schedule: Q04DX002 (ip), vehicle: saline with Tween-80
[3] = endpoint: mean survival time, dose: 400.0 mg/kg/injection, schedule: Q04DX002 (ip), vehicle: saline with Tween-80
[4] = endpoint: mean survival time, dose: 50.0 mg/kg/injection, schedule: Q01DX009 (ip), vehicle: saline with Tween-80
[5] = endpoint: mean survival time, dose: 100.0 mg/kg/injection, schedule: Q01DX009 (ip), vehicle: saline with Tween-80
[6] = endpoint: mean survival time, dose: 200.0 mg/kg/injection, schedule: Q01DX009 (ip), vehicle: saline with Tween-80
[7] = endpoint: mean survival time, dose: 400.0 mg/kg/injection, schedule: Q01DX009 (ip), vehicle: saline with Tween-80
[8] = endpoint: mean survival time, dose: 50.0 mg/kg/injection, schedule: Q01DX009 (ip), vehicle: saline
[9] = endpoint: mean survival time, dose: 100.0 mg/kg/injection, schedule: Q04DX003 (ip), vehicle: saline with Tween-80
[10] = endpoint: mean survival time, dose: 200.0 mg/kg/injection, schedule: Q04DX003 (ip), vehicle: saline with Tween-80

Measured: T/C

O=c1[nH]c2cc(Cl)ccc2c2ccc(Cl)cc12
inactive: endpoint: mean survival time, dose: 50.0 mg/kg/injection, schedule: Q01DX001 (ip), vehicle: carboxymethylcellulose (CMC) 98 % of control | endpoint: mean survival time, dose: 100.0 mg/kg/injection, schedule: Q01DX001 (ip), vehicle: carboxymethylcellulose (CMC) 98 % of control | endpoint: mean survival time, dose: 200.0 mg/kg/injection, schedule: Q01DX001 (ip), vehicle: carboxymethylcellulose (CMC) 104 % of control | endpoint: mean survival time, dose: 400.0 mg/kg/injection, schedule: Q01DX001 (ip), vehicle: carboxymethylcellulose (CMC) 95 % of control

CCCCCCCCCCCOc1ccc(Cl)cc1Cl
inactive: [1] 90 % of control | [2] 93 % of control | [3] 86 % of control

Cc1ccc(C(=O)NCCCOc2ccc(N3C(N)=NC(N)=NC3(C)C)cc2Cl)cc1S(=O)(=O)F
inactive: endpoint: mean survival time, dose: 12.5 mg/kg/injection, schedule: Q01DX009 (ip), vehicle: saline with Tween-80 106 % of control | endpoint: mean survival time, dose: 25.0 mg/kg/injection, schedule: Q01DX009 (ip), vehicle: saline with Tween-80 103 % of control | [4] 103 % of control | [5] 106 % of control

CC1(C(=O)O)CC1(C)C(=O)O (configuration not stated)
inactive: [5] 93 % of control | [6] 91 % of control | [7] 90 % of control

O=C1CN(CCN2CC(=O)N(C(=O)c3ccccc3)C2=S)C(=S)N1Cc1ccccc1
inactive: [4] 96 % of control | [5] 96 % of control | [6] 96 % of control

CCN(C)N=Nc1ccc(C(N)=O)cc1
active: endpoint: mean survival time, dose: 75.0 mg/kg/injection, schedule: Q01DX009 (ip), vehicle: Klucel (hydroxypropylcellulose) (HPC) 156 % of control
inactive: endpoint: mean survival time, dose: 18.75 mg/kg/injection, schedule: Q01DX009 (ip), vehicle: Klucel (hydroxypropylcellulose) (HPC) 103 % of control | endpoint: mean survival time, dose: 100.0 mg/kg/injection, schedule: Q01DX009 (oral), vehicle: saline with Tween-80 115 % of control | endpoint: mean survival time, dose: 200.0 mg/kg/injection, schedule: Q01DX009 (oral), vehicle: saline with Tween-80 120 % of control

CCCCC(CC)C(=O)N1CCOCC1 (configuration not stated)
inactive: [5] 96 % of control | [6] 92 % of control | [7] 86 % of control

CCN(CC)CCN(CC)C(=O)C(O)(c1ccccc1)c1ccccc1
inactive: [8] 98 % of control | endpoint: mean survival time, dose: 100.0 mg/kg/injection, schedule: Q01DX009 (ip), vehicle: saline 95 % of control | endpoint: mean survival time, dose: 200.0 mg/kg/injection, schedule: Q01DX009 (ip), vehicle: saline 91 % of control

Oc1cc2ccc3c(c2cc1O)CCc1cn[nH]c1-3
inactive: endpoint: mean survival time, dose: 25.0 mg/kg/injection, schedule: Q01DX001 (ip), vehicle: saline with Tween-80 104 % of control | endpoint: mean survival time, dose: 50.0 mg/kg/injection, schedule: Q01DX001 (ip), vehicle: saline with Tween-80 111 % of control | endpoint: mean survival time, dose: 100.0 mg/kg/injection, schedule: Q01DX001 (ip), vehicle: saline with Tween-80 92 % of control

CC1CCN(Cc2c(COc3ccc(Cl)cc3)n(C)c3ccccc23)CC1
inactive: [9] 87 % of control | [10] 93 % of control | endpoint: mean survival time, dose: 400.0 mg/kg/injection, schedule: Q04DX003 (ip), vehicle: saline with Tween-80 94 % of control

COc1ccc(CC(=O)O)cc1OC
inactive: [5] 94 % of control | [6] 103 % of control | [7] 89 % of control

COS(=O)(=O)C=C(c1ccccc1)c1ccccc1
inactive: endpoint: mean survival time, dose: 75.0 mg/kg/injection, schedule: Q01DX009 (ip), vehicle: saline 103 % of control | endpoint: mean survival time, dose: 75.0 mg/kg/injection, schedule: Q04DX003 (ip), vehicle: saline 91 % of control | endpoint: mean survival time, dose: 150.0 mg/kg/injection, schedule: Q01DX009 (ip), vehicle: saline 100 % of control | endpoint: mean survival time, dose: 150.0 mg/kg/injection, schedule: Q04DX003 (ip), vehicle: saline 94 % of control | endpoint: mean survival time, dose: 300.0 mg/kg/injection, schedule: Q01DX009 (ip), vehicle: saline 100 % of control | endpoint: mean survival time, dose: 300.0 mg/kg/injection, schedule: Q04DX003 (ip), vehicle: saline 91 % of control

N#Cc1cn(C2OC(CO)C(O)C2O)c2ncnc(NC(=O)c3ccccc3)c12 (configuration not stated)
inactive: endpoint: mean survival time, dose: 0.78 mg/kg/injection, schedule: Q01DX001 (ip), vehicle: suspension in saline 95 % of control | endpoint: mean survival time, dose: 1.56 mg/kg/injection, schedule: Q01DX001 (ip), vehicle: suspension in saline 106 % of control | endpoint: mean survival time, dose: 3.13 mg/kg/injection, schedule: Q01DX001 (ip), vehicle: suspension in saline 110 % of control | endpoint: mean survival time, dose: 6.25 mg/kg/injection, schedule: Q01DX001 (ip), vehicle: suspension in saline 108 % of control | endpoint: mean survival time, dose: 12.5 mg/kg/injection, schedule: Q01DX001 (ip), vehicle: suspension in saline 111 % of control

COc1ccc(N=N/N=c2\sc3cc(OC)ccc3n2C)cc1
inactive: endpoint: median survival time, dose: 7.5 mg/kg/injection, schedule: Q01DX005 (ip), vehicle: saline with Tween-80 100 % of control | endpoint: median survival time, dose: 15.0 mg/kg/injection, schedule: Q01DX005 (ip), vehicle: saline with Tween-80 105 % of control | endpoint: median survival time, dose: 30.0 mg/kg/injection, schedule: Q01DX005 (ip), vehicle: saline with Tween-80 108 % of control | endpoint: median survival time, dose: 42.5 mg/kg/injection, schedule: Q01DX005 (ip), vehicle: saline with Tween-80 102 % of control | endpoint: median survival time, dose: 60.0 mg/kg/injection, schedule: Q01DX005 (ip), vehicle: saline with Tween-80 105 % of control | endpoint: median survival time, dose: 85.0 mg/kg/injection, schedule: Q01DX005 (ip), vehicle: saline with Tween-80 102 % of control | endpoint: median survival time, dose: 120.0 mg/kg/injection, schedule: Q01DX005 (ip), vehicle: saline with Tween-80 104 % of control | endpoint: median survival time, dose: 170.0 mg/kg/injection, schedule: Q01DX005 (ip), vehicle: saline with Tween-80 100 % of control

CC1(C)Oc2[nH]c(=O)n(-c3ccc(Cl)cc3)c(=O)c2C1c1ccc(Cl)cc1 (configuration not stated)
inactive: [1] 102 % of control | [2] 105 % of control | [3] 109 % of control

CC1(C)N=C(N)N=C(N)N1c1ccc(Cl)c(Cl)c1
inactive: endpoint: mean survival time, dose: 25.0 mg/kg/injection, schedule: Q04DX002 (ip), vehicle: saline with Tween-80 102 % of control | endpoint: mean survival time, dose: 50.0 mg/kg/injection, schedule: Q04DX002 (ip), vehicle: saline with Tween-80 98 % of control | endpoint: mean survival time, dose: 100.0 mg/kg/injection, schedule: Q01DX001 (ip), vehicle: Klucel (hydroxypropylcellulose) (HPC) 96 % of control | [1] 90 % of control

CNC(=O)c1ccc2ccccc2c1
inactive: endpoint: mean survival time, dose: 50.0 mg/kg/injection, schedule: Q01DX001 (ip), vehicle: saline 106 % of control | endpoint: mean survival time, dose: 100.0 mg/kg/injection, schedule: Q01DX001 (ip), vehicle: saline 95 % of control | endpoint: mean survival time, dose: 200.0 mg/kg/injection, schedule: Q01DX001 (ip), vehicle: saline 93 % of control | endpoint: mean survival time, dose: 400.0 mg/kg/injection, schedule: Q01DX001 (ip), vehicle: saline 95 % of control

O=C(C[n+]1ccc2ccccc2c1)c1ccc(Br)cc1
inactive: endpoint: mean survival time, dose: 12.5 mg/kg/injection, schedule: Q04DX003 (ip), vehicle: saline 98 % of control | endpoint: mean survival time, dose: 25.0 mg/kg/injection, schedule: Q01DX009 (ip), vehicle: saline 98 % of control | endpoint: mean survival time, dose: 25.0 mg/kg/injection, schedule: Q04DX003 (ip), vehicle: saline 98 % of control | [8] 102 % of control | endpoint: mean survival time, dose: 50.0 mg/kg/injection, schedule: Q04DX003 (ip), vehicle: saline 101 % of control | endpoint: mean survival time, dose: 100.0 mg/kg/injection, schedule: Q04DX003 (ip), vehicle: saline 97 % of control

C=C(C)CSC#N
inactive: endpoint: mean survival time, dose: 25.0 mg/kg/injection, schedule: Q04DX003 (ip), vehicle: saline with Tween-80 97 % of control | endpoint: mean survival time, dose: 50.0 mg/kg/injection, schedule: Q04DX003 (ip), vehicle: saline with Tween-80 100 % of control | [9] 100 % of control and 107 % of control

Cc1ccc(N2CCN(CCCCCC(=O)O)CC2)cc1Cl
inactive: [9] 106 % of control | endpoint: mean survival time, dose: 176.0 mg/kg/injection, schedule: Q04DX003 (ip), vehicle: saline with Tween-80 117 % of control | [10] 104 % of control | endpoint: mean survival time, dose: 264.0 mg/kg/injection, schedule: Q04DX003 (ip), vehicle: saline with Tween-80 113 % of control

NC(N)=Nc1nc2ccccc2[nH]1
inactive: endpoint: mean survival time, dose: 7.0 mg/kg/injection, schedule: Q01DX009 (ip), vehicle: saline 104 % of control | endpoint: mean survival time, dose: 14.0 mg/kg/injection, schedule: Q01DX009 (ip), vehicle: saline 104 % of control | endpoint: mean survival time, dose: 28.0 mg/kg/injection, schedule: Q01DX009 (ip), vehicle: saline 98 % of control
